Source: patent US20250215013A1, “SUBSTITUTED TRICYCLIC COMPOUNDS AS PARP INHIBITORS AND THE USE THEREOF” (IMPACT THERAPEUTICS (SHANGHAI), INC., priority 2022, published 2025)

Key:
MDA-MB-436 cells = assay: Growth inhibition assay against BRCA mutant human breast cancer MDA-MB-436 cell line (CCK-8); type: cell-based; conditions: proliferation of MDA-MB-436 cells, 7 days
PDE3A = PDE3A (Homo sapiens (Human), UniProt Q14432); assay: PDE3A fluorescence polarization (FP) assay; type: biochemical; conditions: PDE3A enzyme activity, FAM-cAMP substrate
PDE3A, sequence (Q14432 whole entry): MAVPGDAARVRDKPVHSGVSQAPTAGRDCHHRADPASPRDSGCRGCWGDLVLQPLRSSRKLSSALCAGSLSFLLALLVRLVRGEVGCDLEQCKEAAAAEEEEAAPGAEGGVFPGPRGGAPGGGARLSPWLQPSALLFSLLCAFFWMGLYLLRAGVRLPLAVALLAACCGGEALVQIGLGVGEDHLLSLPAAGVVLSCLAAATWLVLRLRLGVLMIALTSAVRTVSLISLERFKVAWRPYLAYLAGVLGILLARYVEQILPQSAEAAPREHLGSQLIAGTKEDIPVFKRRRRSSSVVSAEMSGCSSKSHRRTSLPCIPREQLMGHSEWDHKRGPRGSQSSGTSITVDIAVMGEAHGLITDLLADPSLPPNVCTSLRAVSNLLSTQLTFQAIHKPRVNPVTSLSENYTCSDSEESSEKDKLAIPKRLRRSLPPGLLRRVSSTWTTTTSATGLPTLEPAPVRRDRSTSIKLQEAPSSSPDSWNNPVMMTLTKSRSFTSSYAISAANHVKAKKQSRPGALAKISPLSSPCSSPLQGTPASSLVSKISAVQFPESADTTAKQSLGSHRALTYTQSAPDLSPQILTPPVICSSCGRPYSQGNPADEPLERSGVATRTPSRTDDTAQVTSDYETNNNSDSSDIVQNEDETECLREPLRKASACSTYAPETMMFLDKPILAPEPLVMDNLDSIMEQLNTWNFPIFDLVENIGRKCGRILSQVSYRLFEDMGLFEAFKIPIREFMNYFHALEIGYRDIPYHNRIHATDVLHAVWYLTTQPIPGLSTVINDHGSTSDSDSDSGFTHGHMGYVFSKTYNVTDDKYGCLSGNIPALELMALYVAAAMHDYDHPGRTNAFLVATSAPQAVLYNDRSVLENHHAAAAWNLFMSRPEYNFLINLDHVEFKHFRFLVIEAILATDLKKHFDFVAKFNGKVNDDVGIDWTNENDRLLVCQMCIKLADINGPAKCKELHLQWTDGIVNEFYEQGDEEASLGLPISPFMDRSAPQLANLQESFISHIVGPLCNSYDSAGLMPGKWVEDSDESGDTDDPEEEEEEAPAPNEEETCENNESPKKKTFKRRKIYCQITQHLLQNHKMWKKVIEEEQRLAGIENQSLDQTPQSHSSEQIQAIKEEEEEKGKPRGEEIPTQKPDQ

[1] = target: recombinant poly(ADP-ribose) polymerase 1 (PARP1) (Homo sapiens (Human), UniProt P09874)
recombinant poly(ADP-ribose) polymerase 1 (PARP1), sequence (P09874 whole entry): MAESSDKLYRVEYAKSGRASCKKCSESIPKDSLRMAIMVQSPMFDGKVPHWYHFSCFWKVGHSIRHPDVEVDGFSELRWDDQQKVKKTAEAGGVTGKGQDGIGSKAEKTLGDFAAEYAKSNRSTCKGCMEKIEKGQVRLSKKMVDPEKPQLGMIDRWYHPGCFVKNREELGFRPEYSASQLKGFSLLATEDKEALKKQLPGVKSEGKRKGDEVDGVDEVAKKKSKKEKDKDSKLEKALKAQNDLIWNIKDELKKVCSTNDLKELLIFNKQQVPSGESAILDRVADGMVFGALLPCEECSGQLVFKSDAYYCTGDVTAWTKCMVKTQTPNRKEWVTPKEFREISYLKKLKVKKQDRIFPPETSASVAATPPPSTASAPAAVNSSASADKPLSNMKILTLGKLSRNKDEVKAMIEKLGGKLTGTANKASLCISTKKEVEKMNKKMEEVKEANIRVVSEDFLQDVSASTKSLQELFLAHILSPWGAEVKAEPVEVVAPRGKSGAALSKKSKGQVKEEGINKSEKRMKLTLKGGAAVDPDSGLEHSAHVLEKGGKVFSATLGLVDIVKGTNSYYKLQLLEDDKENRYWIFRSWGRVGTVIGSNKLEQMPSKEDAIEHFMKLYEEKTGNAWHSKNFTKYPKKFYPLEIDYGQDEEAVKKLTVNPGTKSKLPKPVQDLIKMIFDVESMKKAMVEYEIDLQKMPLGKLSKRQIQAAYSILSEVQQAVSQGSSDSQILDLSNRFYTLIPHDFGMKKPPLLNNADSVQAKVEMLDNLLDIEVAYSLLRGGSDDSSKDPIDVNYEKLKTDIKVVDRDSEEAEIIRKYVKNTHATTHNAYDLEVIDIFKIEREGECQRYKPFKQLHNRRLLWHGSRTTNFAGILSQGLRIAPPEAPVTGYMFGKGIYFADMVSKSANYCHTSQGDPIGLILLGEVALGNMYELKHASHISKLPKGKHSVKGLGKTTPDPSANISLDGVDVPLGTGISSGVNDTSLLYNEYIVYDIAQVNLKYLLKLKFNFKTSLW

[2] = target: recombinant poly(ADP-ribose) polymerase 2 (PARP2); assay: PARP2 chemiluminescent assay; type: biochemical; conditions: inhibition of PARP2 enzyme activity, chemiluminescence

IC50 (MDA-MB-436 cells; Homo sapiens, MDA-MB-436, […]) | IC50 (PDE3A) | IC50 [1] | IC50 [2] | IC50 (MDA-MB-436 cells) | Structure (SMILES)
3.5 nM | 1.2 µM | 0.46 nM | 166 nM |  | CNC(=O)c1ccc(N2CCN(Cc3ccc4c(c3)[nH]c(=O)c3cocc34)CC2)c(F)n1 [Example 143, 7-((4-(2-fluoro-6-(methylcarbamoyl)pyridin-3-yl)piperazin-1-yl)methyl)furo[3,4-c]quinolin-4(5H)-one]
1.9 nM | > 30 µM | 0.23 nM | 315 nM |  | O=C(NC1CC1)c1ccc(N2CCN(Cc3ccc4c([nH]c(=O)c5c(F)cnn54)c3F)CC2)c(F)n1 [Example 181, 7-((4-(2-fluoro-6-(cyclopropylcarbamoyl)pyridin-3-yl)piperazin-1-yl)methyl)-3,6-difluoropyrazolo[1,5-a]quinoxalin-4(5H)-one]
5.86 nM | 8.57 µM | 0.39 nM | 5580 nM |  | CNC(=O)c1ccc(N2CCN(Cc3ccc4c([nH]c(=O)c5ccoc54)c3F)CC2)c(C)n1 [Example 43, 7-((4-(2-methyl-6-(methylcarbamoyl)pyridin-3-yl)piperazin-1-yl)methyl)-6-fluoro-furo[3,2-c]quinolin-4(5H)-one]
4.49 nM | > 30 µM | 0.5 nM | 67.1 nM |  | CNC(=O)c1ccc(N2CCN(Cc3ccc4c([nH]c(=O)c5c(C(F)(F)F)cnn54)c3F)CC2)c(F)n1 [Example 179, 7-((4-(2-fluoro-6-(methylcarbamoyl)pyridin-3-yl)piperazin-1-yl)methyl)-3-trifluoromethyl-6-fluoropyrazolo[1,5-a]quinoxalin-4(5H)-one]
10.6 nM | > 30 µM | 1.95 nM | > 10000 nM |  | CNC(=O)c1ccc(N2CCN(Cc3ccc4c([nH]c(=O)c5c(C)cnn54)c3F)CC2)c(C)n1 [Example 57, 7-((4-(2-methyl-6-(methylcarbamoyl)pyridin-3-yl)piperazin-1-yl)methyl)-6-fluoro-3-methylpyrazolo[1,5-a]quinoxalin-4(5H)-one]
 | 0.58 µM |  |  |  | CNC(=O)c1ccc(N2CCN(Cc3ccc4c(c3)[nH]c(=O)c3ccoc34)CC2)c(C)n1 [Example 6, 7-((4-(2-methyl-6-(methylcarbamoyl)pyridin-3-yl)piperazin-1-yl)methyl)furo[3,2-c]quinolin-4(5H)-one]
5.5 nM | > 30 µM | 1.89 nM | 1330 nM |  | CNC(=O)c1ccc(N2CCN(Cc3cc4[nH]c(=O)c5occc5c4cc3F)CC2)c(F)n1 [Example 102, 7-((4-(2-fluoro-6-(methylcarbamoyl)pyridin-3-yl)piperazin-1-yl)methyl)-8-fluorofuro[2,3-c]quinolin-4(5H)-one]
 | 1.46 µM |  |  |  | CNC(=O)c1ccc(N2CCN(Cc3ccc4c(c3)[nH]c(=O)c3occc34)CC2)c(C)n1 [Example 2, 7-((4-(2-methyl-6-(methylcarbamoyl)pyridin-3-yl)piperazin-1-yl)methyl)furo[2,3-c]quinolin-4(5H)-one]
4.5 nM | > 25 µM | 0.48 nM | 731 nM |  | Cc1cnn2c1c(=O)[nH]c1c(F)c(CN3CCN(c4ccc(C(=O)NC5CC5)nc4F)CC3)ccc12 [Example 126, 7-((4-(2-fluoro-6-(cyclopropylcarbamoyl)pyridin-3-yl)piperazin-1-yl)methyl)-6-fluoro-3-methylpyrazolo[1,5-a]quinoxalin-4(5H)-one]
2.24 nM | 28.9 µM | 0.84 nM | 1250 nM |  | CNC(=O)c1ccc(N2CCN(Cc3ccc4c([nH]c(=O)n5cc(C)nc45)c3F)CC2)c(F)n1 [Example 140, 8-((4-(2-fluoro-6-(methylcarbamoyl)pyridin-3-yl)piperazin-1-yl)methyl)-2-methyl-7-fluoroimidazo[1,2-c]quinazolin-5(6H)-one]
1.24 nM | > 30 µM | 0.24 nM | 431 nM |  | CCNC(=O)c1ccc(N2CCN(Cc3ccc4c([nH]c(=O)c5c(F)cnn54)c3F)CC2)c(F)n1 [Example 180, 7-((4-(2-fluoro-6-(ethylcarbamoyl)pyridin-3-yl)piperazin-1-yl)methyl)-3,6-difluoropyrazolo[1,5-a]quinoxalin-4(5H)-one]
5.02 nM | > 30 µM | 0.5 nM | > 10000 nM |  | Cc1cnn2c1c(=O)[nH]c1c(F)c(CN3CCN(c4ccc(C(=O)NCC(F)F)nc4F)CC3)ccc12 [Example 129, 7-((4-(2-fluoro-6-(2,2-difluoroethylcarbamoyl)pyridin-3-yl)piperazin-1-yl)methyl)-6-fluoro-3-methylpyrazolo[1,5-a]quinoxalin-4(5H)-one]
23 nM | > 30 µM | 0.57 nM | > 10000 nM |  | CNC(=O)c1ccc(N2CCN(Cc3ccc4c([nH]c(=O)c5c(C)cnn54)c3F)CC2)c(C(F)(F)F)n1 [Example 133, 7-((4-(2-trifluoromethyl-6-(methylcarbamoyl)pyridin-3-yl)piperazin-1-yl)methyl)-6-fluoro-3-methylpyrazolo[1,5-a]quinoxalin-4(5H)-one]
4.72 nM | 22 µM | 0.52 nM | 1870 nM |  | CNC(=O)c1ccc(N2CCN(Cc3ccc4c([nH]c(=O)c5occc54)c3F)CC2)c(Cl)n1 [Example 68, 7-((4-(2-chloro-6-(methylcarbamoyl)pyridin-3-yl)piperazin-1-yl)methyl)-6-fluorofuro[2,3-c]quinolin-4(5H)-one]
1.76 nM | 1.59 µM | 0.28 nM | 1390 nM |  | CNC(=O)c1ccc(N2CCN(Cc3cc4[nH]c(=O)c5c(F)cnn5c4cc3F)CC2)c(C)n1 [Example 183, 7-((4-(2-methyl-6-(methylcarbamoyl)pyridin-3-yl)piperazin-1-yl)methyl)-3,8-difluoropyrazolo[1,5-a]quinoxalin-4(5H)-one]
16.5 nM | > 30 µM | 0.95 nM | 194 nM |  | CNC(=O)c1ccc(N2CCN(Cc3ccc4c([nH]c(=O)c5cn[nH]c54)c3F)CC2)c(F)n1 [Example 46, 7-((4-(2-fluoro-6-(methylcarbamoyl)pyridin-3-yl)piperazin-1-yl)methyl)-6-fluoro-1,5-dihydro-4H-pyrazolo[4,3-c]quinolin-4-one]
 | > 30 µM | 0.53 nM | 462 nM | 1.32 nM | CNC(=O)c1ccc(N2CCN(Cc3ccc4c([nH]c(=O)c5c(F)cnn54)c3F)CC2)c(F)n1 [Example 122, 7-((4-(2-fluoro-6-(methylcarbamoyl)pyridin-3-yl)piperazin-1-yl)methyl)-3,6-difluoropyrazolo[1,5-a]quinoxalin-4(5H)-one]
1.41 nM | > 30 µM |  |  |  | CNC(=O)c1ccc(N2CCN(Cc3ccc4c([nH]c(=O)c5c(Cl)cnn54)c3F)CC2)c(F)n1 [Example 60, 7-((4-(2-fluoro-6-(methylcarbamoyl)pyridin-3-yl)piperazin-1-yl)methyl)-6-fluoro-3-chloro-pyrazolo[1,5-a]quinoxalin-4(5H)-one]
3.91 nM | > 30 µM |  |  |  | [2H]C([2H])([2H])NC(=O)c1ccc(N2CCN(Cc3ccc4c([nH]c(=O)c5c(C)cnn54)c3F)CC2)c(F)n1 [Example 159, 6-fluoro-7-((4-(2-fluoro-6-((methyl-d3)carbamoyl)pyridin-3-yl)piperazin-1-yl)methyl)-3-methylpyrazolo[1,5-a]quinoxalin-4(5H)-one]
6.56 nM | 13.9 µM |  |  |  | O=C(NC1CC1)c1ccc(N2CCN(Cc3ccc4c([nH]c(=O)c5occc54)c3F)CC2)c(F)n1 [Example 67, 7-((4-(2-fluoro-6-(cyclopropylcarbamoyl)pyridin-3-yl)piperazin-1-yl)methyl)-6-fluorofuro[2,3-c]quinolin-4(5H)-one]
3.76 nM | > 30 µM |  |  |  | CNC(=O)c1ccc(N2CCN(Cc3ccc4c([nH]c(=O)c5nn(C)cc54)c3F)CC2)c(F)n1 [Example 93, 6-fluoro-7-((4-(2-fluoro-6-(methylcarbamoyl)pyridin-3-yl)piperazin-1-yl)methyl)-2-methyl-2,5-dihydro-4H-pyrazolo[3,4-c]quinolin-4-one]
2.48 nM | 0.69 µM |  |  |  | CNC(=O)c1ccc(N2CCN(Cc3cc(F)c4c(c3)[nH]c(=O)c3occc34)CC2)c(C)n1 [Example 40, 9-fluoro-7-((4-(2-methyl-6-(methylcarbamoyl)pyridin-3-yl)piperazin-1-yl)methyl)furo[2,3-c]quinolin-4(5H)-one]
1.04 nM | 0.88 µM |  |  |  | CNC(=O)c1ccc(N2CCN(Cc3ccc4c(c3)[nH]c(=O)c3c(F)cnn34)CC2)c(F)n1 [Example 49, 7-((4-(2-fluoro-6-(methylcarbamoyl)pyridin-3-yl)piperazin-1-yl)methyl)-3-fluoropyrazolo[1,5-a]quinoxalin-4(5H)-one]
5.58 nM | > 30 µM |  |  |  | CNC(=O)c1ccc(N2CCN(Cc3ccc4c([nH]c(=O)c5c(F)cnn54)c3Cl)CC2)c(F)n1 [Example 192, 3-fluoro-7-((4-(2-fluoro-6-(methylcarbamoyl)pyridin-3-yl)piperazin-1-yl)methyl)-6-chloropyrazolo[1,5-a]quinoxalin-4(5H)-one]
1.15 nM |  | 1.11 nM | 6370 nM |  | CNC(=O)c1ccc(N2CCN(Cc3ccc4c(c3)[nH]c(=O)c3ncoc34)CC2)c(C)n1 [Example 12, 7-((4-(2-methyl-6-(methylcarbamoyl)pyridin-3-yl)piperazin-1-yl)methyl)oxazolo[4,5-c]quinolin-4(5H)-one]
3.12 nM | > 30 µM |  |  |  | CNC(=O)c1ccc(N2CCN(Cc3ccc4c([nH]c(=O)c5c(C)cnn54)c3F)CC2)c(Cl)n1 [Example 131, 7-((4-(2-chloro-6-(methylcarbamoyl)pyridin-3-yl)piperazin-1-yl)methyl)-6-fluoro-3-methylpyrazolo[1,5-a]quinoxalin-4(5H)-one]
